Data on one compound can be found in patent US20160279110A1, “COMPOSITIONS AND METHODS FOR TREATING CANCER” (UNIVERSITY OF ROCHESTER, priority 2015, published 2016).

Read-outs that look alike come from different tables or passages of the source.

In test [1] the test system is NMD. The test is described as follows: NMD reporter mRNA levels by RT-qPCR in MCF7 cells exposed to NMDI-1. The class given is cell-based, human. A general note: Quantitative PCR measures a nucleic acid by following its amplification.
In the next test the test system is HeLa cells. Set-up: reduction in cell viability relative to doxorubicin alone: dose or concentration left out as unconfirmed.
Test [2] relates to NMD. Kind of test: NMD reporter mRNA levels (β-Gl Ter, GPx1 Ter) by RT-qPCR in HeLa cells exposed to NMDI-1. The class given is cell-based, human. As to the method:
Norm encodes a PTCfree version of GPx1 mRNA, whereas Ter encodes mRNA harboring a PTC at codon 46. Cells were re-plated 16 h after transfection at equivalent densities and exposed 24 h later to the indicated concentration of NMDI-1 or, as a positive control for NMD inhibition, cycloheximide (CHX). The levels of β-Gl reporter mRNAs were normalized to the level of the MUP reference mRNA, and the normalized levels of β-Gl Ter mRNA are presented as a percentage of the normalized level of β-Gl Norm mRNA. FIG. 16b is essentially as in a, except GPx1Ter mRNA was analyzed. FIG. 16c is essentially as in b, except MCF7 cells were used. FIG. 16d is essentially as in b, except MCF7 cells were used.
Cells were homogenized, and RNA was purified using RNeasy mini kits (Qiagen). To ensure linearity of both reverse transcription (RT) and qPCR analyses, 17 standard concentrations were constructed using two-fold serial dilutions of total-cell RNA, beginning with 2 μg. Experimental sample input was 200 ng of RNA. RT was conducted using Superscript III (Invitrogen) according to manufacturer's directions and 100 ng of random hexamer (Invitrogen) in a 20 μl reaction volume. Thermal cycling was as follows: 25° C. for 5 min; 42° C. for 60 min; 50° C. for 60 min; and 75° C. for 10 min. Reactions were diluted to a final volume of 80 μl with water and used for qPCR.
qPCR was conducted using FAST SYBR green master mix (ABI; Foster City, Calif.) according to manufacturer's directions. Cycling was done using a 7500 FAST Real Time machine (ABI) with default conditions, and thermal denaturation curves were generated for each run. Primer sequences were as follows, with mRNA primers sets containing at least one primer spanning an exon-exon junction, and pre-mRNA primer sets containing at least one primer that hybridizes to intronic sequences. Primers for Gl mRNA, GPx1 mRNA and MUP mRNA were described in Kurosaki et al.
Therefore, a small-molecule inhibitor of NMD, NMDI-1 (FIG. 8c), that interferes with the interaction between UPF1 and SMG5 was utilized. Application of NMDI-1 and the consequential attenuation of NMD may more fully replicate the complete inhibition of NMD mediated by the UPF1 CP generation explored here as well as UPF1 dephosphorylation and the generation of additional UPF1 CPs seen with doxorubicin (FIG. 1c).

Setting [3] is: NMDI-1 at a concentration of 10.

With `Cc1c2ccnc(Cl)c2c(C)c2c1[nH]c1ncccc12` [NMDI-1], in the test with NMD [1], the “effect on NMD in MCF7 cells” value is reported as “no effect”. Moreover, the “cell viability at sub-lethal doxorubicin” value in the test with HeLa cells (0.5 μM doxorubicin, doxorubicin alone, co-treatment or pre-treatment with NMDI-1) was “none of the treatments significantly affected viability”. Further, the “reduction in cell viability relative to doxorubicin alone” value with HeLa cells (NMDI-1 pulse 8 h, washed, then doxorubicin 16 h) is approximately 2.5 fold. For the same compound, the “cell viability relative to doxorubicin treatment alone” value in the test with HeLa cells (continuous co-incubation 16 h with doxorubicin and NMDI-1) is “statistically significant decreases in cell viability”. Besides, the “inhibition of NMD in HeLa cells” value in the test with NMD [2] is listed as “effective in HeLa cells”; in the test with NMD [2] (listed as NMD-1), “potent inhibitor of NMD”. Besides, the “raising the level of PTC-bearing glutathione peroxidase 1 (GPx1) mRNA” value in the test with NMD [2] (setting [3]) is reported as approximately 1.6 fold. For the same compound, the “raising the level of β-Gl Ter mRNA” value in the test with NMD [2] (setting [3]) was approximately 3.8 fold.
